{"source": "patent US20190211317A1", "about": "“PEPTIDES AND NANOPARTICLES FOR INTRACELLULAR DELIVERY OF GENOME-EDITING MOLECULES” (Aadigen, LLC, priority 2016, published 2019)", "key": {"[1]": {"test": "CPP/CAS9 and CPP/CAS9:gRNA particle size, polydispersity, zeta potential (Zetasizer 4)", "type": "physicochemical", "protocol": "The CPP/CAS9 and CPP/CAS9/sgRNA particles were further characterized; the mean size, polydispersity and zeta potential were measured with Zetasizer 4 apparatus (Malvern Ltd). […] The mean size and the polydispersity of the CCP/CAS9 and CCP/CAS9:gRNA complexes were determined at 25° C. for 3 min per measurement and zeta potential was measured with Zetasizer 4 apparatus (Malvern Ltd)."}, "[2]": {"system": "EGFP reporter gene in EGFP-U2OS, EGFP-HEK, EGFP-JURKAT cells", "test": "EGFP reporter gene disruption from CPP delivery of CAS9:sgRNA (flow cytometry);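 also: cells carrying one integrated EGFP reporter received peptide-complexed CAS9 preloaded 1:1 with EGFP sgRNA, cultured 72 h, then EGFP level read by flow cytometry, lipofectamine 2000 and RNAiMAX as positive controls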", "type": "cell-based, human", "conditions": "for decrease in EGFP expression: CAS9:gRNA 50 nM, CPP:cargo 20:1", "protocol": "Efficacy of CPP-mediated delivery was quantified using a well-established CAS9-induced gene disruption method (Fu et al, 2013, supra), by targeting a specific site in the exogenous EGFP gene reporter in three human cell lines expressing EGFP (GFP-U2OS, EGFP-HEK, EGFP-JURKAT).\nStock solutions of amphipathic peptides were prepared at 1 mg/mL in distilled water and sonicated for 10 min. CAS9 protein was preloaded with purified EGFP sgRNA at a molar ratio of 1:1 and incubated for 10 min prior to forming complexes with the peptides. Preloaded CAS9/gRNA complexes (10 nM, 25 nM, and 50 nM) were mixed with CPPs at 5:1, 10:1 and 20:1 molar ratios of CPP to cargo and incubated for 30 min at 37° C. prior to cell transfection.\nCell line containing a single integrated EGFP reporter gene (GFP-U2OS, EGFP-HEK and EGFP-JURKAT) were cultured in Dulbecco's Modified Eagle's Medium (DMEM), supplemented with 2 mM glutamine, 1% antibiotics (streptomycin 10,000 μg/mL, penicillin, 10,000 IU/mL) and 10% (w/v) foetal calf serum (FCS) at 37° C. in a humidified atmosphere containing 5% CO2. A total of 150,000 cells seeded in a 35 mm dish the day prior to transfection were grown to 50-60% confluence and overlaid with 200 μl of preformed complexes, incubated for 3-5 min, then 400 μl of DMEM was added. After 30 min incubation at 37° C., 1 mL of fresh DMEM containing 16% FCS was added to reach a final FCS concentration of 10%, without removing the overlay of CPP/CAS9-gRNA complexes. Cells were returned to the incubator for 72 hours.\nCAS9-induced double-strand break formation was analyzed using flow cytometry by monitoring level of EGFP expression. […] Both lipofectamine 2000 and RNAiMAX delivery methods were used as positive controls."}, "[3]": {"system": "endogenous EMX1 and exogenous EGFP reporter genes in GFP-U2OS, EGFP-JURKAT cells", "test": "Delivery of multiple RGEN/gRNA complexes: EMX1 and EGFP editing", "type": "cell-based, human", "method": "RNAiMAX delivery was used as positive control. Cells were treated as described previously and CAS9-induced NHEJ analyzed 72 hr after transfection. […] The deletion (indel) frequency in the EMX1 gene was quantified using the T7E1 assay and loss of EGFP expression was monitored by flow cytometry. Data for on-target mutations induced by RGEN/gRNA are reported as an average of 3 separate experiments."}, "[4]": {"system": "endogenous EMX1, AAVS and HPRT genes in U2OS and Human (H9) embryonic stem cells", "test": "Delivery of multiple RGEN:gRNA complexes: EMX1, AAVS, HPRT editing in U2OS and H9 ES cells (T7E1)", "type": "cell-based", "protocol": "RNAiMAX delivery method was used as a positive control.\nU2OS cells were treated as described previously. H9 embryonic stem cells were cultured in Dulbecco's modified Eagle's medium with 4 mM L-glutamine adjusted to contain 1.5 g/L sodium bicarbonate and 4.5 g/L glucose and supplemented with 0.1 mM 2-mercaptoethanol, 85%; and 15% ES-Cell Qualified fetal bovine serum. […] CAS9-induced double-strand break formation followed by repair through NHEJ was analyzed 72 hr after transfection by T7E1 assay and quantified using Fragment Analyzer System. The deletion (indel) frequencies in EMX1, AAVS and HPRT genes were quantified using T7E1 assay. Data for on-target mutations induced by RGEN:gRNA are reported as an average of 3 separate experiments."}, "JURKAT and K562 cells": {"system": "JURKAT and K562 cells", "test": "Toxicity of CPP/CAS9/gRNA complexes in T cell lines (MTT assay)", "type": "cell-based, human", "conditions": "up to 100 nM, 24 h", "method": "A total of 30,000 JURKAT or K562 cells seeded in 24-well plates the day prior to transfection were incubated with increasing concentrations of CPP/CAS9/gRNA complexed at 20:1 molar ratio (CPP to CAS9/gRNA) ranging from 1 nM to 200 nM for 30 min prior to addition of medium to reach a final 10% concentration of FCS. Cytotoxic response was measured 24 hours later by colorimetric MTT assay (Sigma, Germany). For MTT assay, cell culture medium was removed and replaced with PBS containing 2.5 mg/ml of MTT for 4 hours. Results correspond to the average of 3 independent experiments."}, "[5]": {"system": "HPRT gene in mouse muscle myoblast cells (C2C12)", "test": "HPRT gene editing in C2C12 myoblasts (T7E1 assay)", "type": "cell-based", "method": "[…] Delivery by RNAiMAX was included as a positive control.\nCAS9-induced NHEJ was analyzed 72 hours after transfection by PCR (FIG. 26) and T7E1 assay (FIG. 27). The deletion (indel) frequencies in the HPRT gene were quantified using a T7E1 assay by quantifying the amount of uncut vs cut DNA using a Fragment Analyzer System. Data for on-target mutations induced by RGEN/gRNA are reported as an average of 3 separate experiments\nThe cell line was maintained in 5% CO2 at 37° C. and cell viability was assessed by the Trypan Blue exclusion test. To induce myogenic differentiation, at about 80% cell confluence the medium containing 10% fetal calf serum was substituted with medium containing 1% fetal calf serum. The cells were transfected at the undifferentiated stage or at day 7 after differentiation."}, "[6]": {"system": "endogenous EMX1 gene in U2OS, HEPG2, K562 cells and primary human fibroblasts", "test": "EMX1 editing from CPP delivery of CAS9 mRNA/gRNA (T7E1)", "type": "cell-based", "protocol": "CPP/CAS9 mRNA/gRNA complexes were formed by mixing the CAS9 mRNA (0.5 μg) and gRNA (5 μg) with CPP at a 20:1 molar ratio of CPP:cargo and incubating for 30 min at 37° C. prior to cell transfection. Suspension and adherent cells were transfected according to the protocols described in Example 13a. RNAiMAX-mediated delivery (Invitrogen Thermo Fisher France) was used as a control. EMX1 gene editing was analyzed at day 3 and day 6 by T7E1 assay and quantified using a Fragment Analyzer System."}, "primary human T cells": {"system": "primary human T cells", "test": "CAS9 protein expression in primary human T cells after CAS9 mRNA or plasmid delivery (ELISA)", "type": "cell-based", "conditions": "day 3", "protocol": "T cells were isolated from PBMCs using anti-CD3/anti-CD28 antibodies bound to paramagnetic beads (Dynabeads ClinExVivo CD3/CD28, Invitrogen) at a ratio of 3:1 (beads:cells). The cells and beads were co-incubated for 2 hours at room temperature and CD3^+ cell enrichment was performed using Dynal ClinExVIVO MPC magnet (Thermo Fisher). The anti-CD3/anti-CD28 paramagnetic beads were removed, washed and concentrated. Cells in the CD3^+ fraction were resuspended in activation media at a concentration of 1×10^6 cells/ml with AIM-V medium (Thermo Fishers) supplemented with 10% fetal calf serum, 300 IU/ml IL2 and 50 ng/ml OKT3 (MuromonAB-CD3) for two days.\nCPP/CAS9 complexes were formed by mixing the CAS9 mRNA (0.5 μg) with CPP at a 20:1 molar ratio of CPP:CAS9 mRNA and incubating for 30 min at 37° C. prior to cell transfection. CPP/CAS9-expressing plasmid complexes were formed by mixing the CAS9-expressing plasmid (Addgene MLM3639-Plasmid #42252) (0.5 μg) with CPP at a 20:1 molar ratio of CPP:plasmid and incubating for 30 min at 37° C. prior to cell transfection.\nCells were transfected according to the protocol for suspension cells described in Example 13a. RNAiMAX and lipofectamine 2000 lipid-based delivery methods (Invitrogen Thermo Fisher France) were used as controls, and transfections were performed following the manufacturer's instructions. CAS9 protein expression level was analyzed at multiple time points over a period of 10 days as determine by ELISA on protein extracts using antibodies against CRISPR/Cas9 obtained from Diagenode (Diagenode cat. No. C15200223) and ABCAM (clone 7A9-ab191468)."}, "[7]": {"system": "endogenous EMX1 gene in primary human T cells", "test": "EMX1 editing in primary human T cells with CAS9 mRNA, protein or plasmid plus gRNA (T7E1)", "type": "cell-based", "conditions": "CAS9-expressing plasmid and gRNA; day 3", "protocol": "CPP/CAS9 mRNA/gRNA complexes were formed by mixing the CAS9 mRNA (0.5 μg) and gRNA (5 μg) with CPP at a 20:1 molar ratio of CPP to nucleic acid (mRNA+gRNA) and incubating for 30 min at 37° C. prior to cell transfection. CPP/plasmid/gRNA complexes were formed by mixing CAS9 expressing plasmid (Addgene MLM3639-Plasmid #42252) (0.5 μg) and gRNA (5 μg) with CPP at a 20:1 molar ratio of CPP to nucleic acid (plasmid+gRNA) and incubating for 30 min at 37° C. prior to cell transfection. CPP/CAS9/gRNA complexes were formed by mixing preloaded CAS9/gRNA complexes (2.5 μg/5 μg CAS9/gRNA) with CPP at a 20:1 molar ratio of CPP to complex and incubating for 30 min at 37° C. prior to cell transfection.\nT cells were transfected according to the protocol for suspension cells described in Example 13a. Lipofectamine 2000- and RNAiMAX-mediated delivery methods (Invitrogen Thermo Fisher France) were included as controls. EMX1 gene editing was analyzed at day 3, day 6, and day 10 by T7E1 assay and quantified using a Fragment Analyzer System."}, "[8]": {"test": "Particle size, polydispersity and zeta potential with different cargoes (Zetasizer NANO ZS P)", "type": "physicochemical", "conditions": "20:1", "protocol": "The CPP/CAS9-protein, CPP/CAS9-protein/sgRNA, CPP/CAS9-mRNA, CPP/CAS-mRNA/sgRNA particles were characterized; the mean size, polydispersity, and zeta potential were measured with a Zetasizer NANO ZS P apparatus (Malvern Ltd).\nThe mean size and the polydispersity of the CCP/cargo complexes were determined at 25° C. for 5 min per measurement and zeta potential was measured with a Zetasizer NANO ZS P apparatus (Malvern Ltd)."}, "U2OS cells": {"system": "U2OS cells", "conditions": "CAS9 mRNA 0.2 μg and 0.5 μg; 20:1; 72 h", "protocol": "U2OS cells were cultured in Dulbecco's Modified Eagle's Medium (DMEM), supplemented with 2 mM glutamine, 1% antibiotics (streptomycin 10,000 μg/mL, penicillin, 10,000 IU/mL) and 10% (w/v) foetal calf serum (FCS), at 37° C. in a humidified atmosphere containing 5% CO2. […] After 20 min incubation at 37° C., 1 mL of fresh DMEM containing 16% FCS was added in order to reach a final FCS concentration of 10%, without removing the overlay of complexes. Cells were returned to the incubator for 72 hours. CAS9 expression level was quantified by western blot on protein extract using antibody against CRISPR/Cas9 (Diagenode cat. No. C15200223)."}, "Swiss mice": {"system": "Swiss mice", "conditions": "other tissues examined", "protocol": "At 72 hours following injection, animals were sacrificed and tissues including lung, liver, brain, kidney, heart, spleen, blood, and pancreas were collected. Tissues were homogenized and CAS9 expression was analyzed by western blot on protein extract using antibody against CRISPR/Cas9 (Diagenode cat. No. C15200223) or by ELISA using Cas9 monoclonal antibody (SBI clone 7A9)."}, "[9]": {"system": "Luciferase reporter gene in the liver", "conditions": "free ADGN-100a peptide", "protocol": "At 72 hours post injection, animals were sacrificed and the following tissues were collected: liver, lung, kidney, spleen, and blood. Luciferase was quantified by fluorescence in the liver. Tissues were homogenized and CAS9 expression was analyzed by ELISA using Cas9 monoclonal antibody (SBI clone 7A9)."}}, "note": "Where “and” joins values, the source holds several entries; their conditions need not be identical. Identical values can stand only once."}
{"smiles": "CC(C)C[C@H](NC(=O)[C@H](CCCNC(=N)N)NC(=O)[C@H](Cc1c[nH]c2ccccc12)NC(=O)[C@H](CCCNC(=N)N)NC(=O)[C@H](Cc1c[nH]c2ccccc12)NC(=O)CNC(=O)[C@H](C)NC(=O)[C@H](CO)NC(=O)[C@H](CCCNC(=N)N)NC(=O)[C@H](Cc1c[nH]c2ccccc12)NC(=O)[C@H](CCCCN)NC(=O)CCN)C(=O)N[C@@H](Cc1c[nH]c2ccccc12)C(=O)N[C@@H](CCCNC(=N)N)C(=O)N[C@H](C(=O)N[C@@H](CCCNC(=N)N)C(=O)N[C@@H](CO)C(=O)N[C@@H](Cc1c[nH]c2ccccc12)C(=O)N[C@@H](CO)C(=O)N[C@@H](CCCNC(=N)N)C(=O)O)C(C)C", "note": "[ADGN-100a]", "values": [{"measurement": "PI", "setting": "[1]; Cas9:gRNA, molar ratio 10/1", "result": "0.27 ± 0.1"}, {"measurement": "Size", "setting": "[1]; Cas9:gRNA, molar ratio 10/1", "result": "91 ± 5", "unit": "nm"}, {"measurement": "zeta", "setting": "[1]; Cas9:gRNA, molar ratio 10/1", "result": "5.3±1.0 MV and 5.3 ± 0.7 MV"}, {"measurement": "PI", "setting": "[1]; Cas9:gRNA, molar ratio 20/1", "result": "0.28 ± 0.1"}, {"measurement": "Size", "setting": "[1]; Cas9:gRNA, molar ratio 20/1", "result": "87 ± 6", "unit": "nm"}, {"measurement": "zeta", "setting": "[1]; Cas9:gRNA, molar ratio 20/1", "result": "4.8±0.3", "unit": "MV"}, {"measurement": "Pt", "setting": "[1]; Cas9, molar ratio 10/1", "result": "0.25 ± 0.1"}, {"measurement": "zeta", "setting": "[1]; Cas9, molar ratio 10/1", "result": "6.0±0.8", "unit": "mV"}, {"measurement": "Size", "setting": "[1]; Cas9, molar ratio 10/1, 0.9% NaCl", "result": "82 ± 5", "unit": "nm"}, {"measurement": "Pt", "setting": "[1]; Cas9, molar ratio 20/1", "result": "0.21 ± 0.1"}, {"measurement": "Size", "setting": "[1]; Cas9, molar ratio 20/1", "result": "78 ± 7", "unit": "nm"}, {"measurement": "zeta", "setting": "[1]; Cas9, molar ratio 20/1", "result": "7.2±1", "unit": "mV"}, {"measurement": "formation of stable nanoparticles", "setting": "[1]; with CAS9 and CAS9:gRNA complex, molar ratio 10:1 or 20:1", "result": "able to form stable nanoparticles"}, {"measurement": "Mean diameter", "setting": "[1]; with CAS9 and CAS9:gRNA, molar ratio 10:1 or 20:1", "result": "~80", "unit": "nm"}, {"measurement": "reduction of EGFP-positive cells", "setting": "[2]; EGFP-JURKAT", "result": 81, "unit": "%"}, {"measurement": "reduction of number of EGFP-expressing cells", "setting": "[2]; HEK, 1 nM CAS9:gRNA", "result": 62, "unit": "%"}, {"measurement": "decrease in EGFP expression", "setting": "[2]; HEK", "result": 86, "unit": "%"}, {"measurement": "reduction of EGFP-expressing cells / loss of EGFP expression", "setting": "[2]; JURKAT, 1 nM CAS9:gRNA", "result": 51, "unit": "%"}, {"measurement": "reduction of number of EGFP-expressing cells", "setting": "[2]; U2OS, 1 nM CAS9:gRNA", "result": 57, "unit": "%"}, {"measurement": "decrease in EGFP expression", "setting": "[2]; U2OS", "result": 87, "unit": "%"}, {"measurement": "Mean indel Frequency ± S.E.M", "setting": "[3]; JURKAT, EGFP", "result": "78 ± 4", "unit": "%"}, {"measurement": "Mean indel Frequency ± S.E.M", "setting": "[3]; JURKAT, EMX1", "result": "76 ± 7", "unit": "%"}, {"measurement": "Mean indel Frequency ± S.E.M", "setting": "[3]; U2OS, EGFP, 25 nM each complex", "result": "77 ± 6", "unit": "%"}, {"measurement": "Mean indel Frequency ± S.E.M", "setting": "[3]; U2OS, EMX1", "result": "72 ± 8", "unit": "%"}, {"measurement": "Mean indel Frequency ± S.E.M", "setting": "[4]; H9, AAVS", "result": "60 ± 5", "unit": "%"}, {"measurement": "Mean indel Frequency ± S.E.M", "setting": "[4]; H9, EMX1", "result": "61 ± 6", "unit": "%"}, {"measurement": "Mean indel Frequency ± S.E.M", "setting": "[4]; H9, HPRT", "result": "61 ± 5", "unit": "%"}, {"measurement": "Mean indel Frequency ± S.E.M", "setting": "[4]; U2OS, AAVS", "result": "72 ± 4", "unit": "%"}, {"measurement": "Mean indel Frequency ± S.E.M", "setting": "[4]; U2OS, EMX1, 20 nM each complex", "result": "78 ± 7", "unit": "%"}, {"measurement": "Mean indel Frequency ± S.E.M", "setting": "[4]; U2OS, HPRT", "result": "78 ± 6", "unit": "%"}, {"measurement": "toxicity", "setting": "JURKAT and K562 cells", "result": "no toxicity"}, {"measurement": "mean indel frequency", "setting": "[5]; differentiated C2C12", "result": 47, "unit": "%"}, {"measurement": "mean indel frequency", "setting": "[5]; undifferentiated C2C12, 5 μg/10 μg CAS9/gRNA, 20:1", "result": 79, "unit": "%"}, {"measurement": "mean indel frequencies", "setting": "[6]", "result": "about 60%"}, {"measurement": "ELISA signal for CAS9 protein expression", "setting": "primary human T cells; CAS9-expressing plasmid 0.5 μg", "result": "about 4 times the background"}, {"measurement": "ELISA signal for CAS9 protein expression", "setting": "primary human T cells; CAS9 mRNA 0.5 μg", "result": "about 15 times the background"}, {"measurement": "mean indel frequencies", "setting": "[7]", "result": "about 30%"}, {"measurement": "formation of stable nanoparticles", "setting": "[8]; with CAS9-mRNA and CAS9-mRNA/gRNA complex", "result": "able to form stable nanoparticles"}, {"measurement": "Mean diameter", "setting": "[8]; with CAS9-mRNA and CAS9-mRNA/gRNA", "result": "about 75 nm"}, {"measurement": "formation of stable nanoparticles", "setting": "[8]; with CAS9-protein and CAS9-protein/gRNA complex", "result": "able to form stable nanoparticles"}, {"measurement": "Mean diameter", "setting": "[8]; with CAS9-protein and CAS9-protein/gRNA", "result": "about 100 nm"}, {"measurement": "CAS9 protein expression", "setting": "U2OS cells", "result": "dose-dependent expression of CAS9 protein"}, {"measurement": "CAS9 protein expression", "setting": "Swiss mice", "result": "No significant increase"}, {"measurement": "change in luciferase expression", "setting": "[9]", "result": "no change in luciferase expression"}]}
